Results reported in patent publication US7271173B2, “Mixed kappa/mu opioids and uses thereof” (The McLean Hospital Corporation, priority 2002, dated 2007).
Like-named read-outs stand apart in the source and are kept apart here.

How the values were obtained:
[1] = molecular target: T1, human mu opioid receptor (Homo sapiens, UniProt P35372); test: Radioligand binding, [3H]DAMGO (μ), CHO membranes
T1 construct: expressed in transfected cells; host or cells: CHO cells, stably transfected
Description: (§1) Compounds can be characterized in radioligand receptor binding assays, using ligands that are specific for the mu, delta and kappa receptors. The binding assays may utilize guinea pig brain membranes or stably transfected Chinese Hamster Ovary (CHO) cells expressing each of the three opioid receptors. Membranes can be isolated from CHO cells that stably express either the human mu, delta or kappa opioid receptors. At approximately 80% confluence, the cells are harvested by the use of a cell scraper. The cells and media from the plates are centrifuged at 200×g for 10 mm at 4° C.; resuspended in 50 mM Tris-HCl, pH 7.5; homogenized by the use of a Polytron; centrifuged at 48,000×g for 20 mm at 4° C.; and resuspended in 50 mM Tris-HCl, pH 7.5, at a protein concentration of 5-10 mg/ml, as determined by the Bradford method. The membranes are stored frozen, at −80° C. until use.
(§2) Cell membranes are incubated at 25° C. with the radiolabeled ligands in a final volume of 1 ml of 50 mM Tris-HCl, pH 7.5. […] Nonspecific binding is measured by inclusion of 1 μM naloxone. The binding can be terminated by filtering the samples through Schleicher & Scheull No. 32 glass fiber filters using a Brandel 48-well cell harvester. The filters are subsequently washed three times with 3 ml of cold 50 mM Tris-HCl, pH 7.5, and can be counted in 2 ml of Ecoscint A scintillation fluid. For [^3H]U69,593 binding, the filters are soaked in 0.1% polyethylenimine for at least 30 minutes before use. IC50 values can be calculated by a least squares fit to a logarithm-probit analysis. Ki values of unlabeled compounds are calculated from the equation Ki=(IC50)/1+S where S=(concentration of radioligand) (Kd of radioligand). Cheng and Prusoff, Biochem. Pharmacol. 22:3099 (1973). Alternatively, guinea pig brain membranes can be prepared and used as previously described in Neumeyer, et al., J. Med. Chem. 43:114 (2000).
(§3) As described in Example 12, 0.5 milligrams of protein per sample was incubated with 12 different concentrations of the compounds in the presence of receptor-specific radioligands at 25° C. in a final volume of 1 mL (50 mM Tris-HCl buffer, pH 7.5). Nonspecific binding was determined using 10 μM naloxone. The data in Table 1 are the mean values SEM from three experiments performed in triplicate.
as §3, with “Four 10-ketomorphinan compounds, see Table 2, were evaluated for their affinity and selectivity at the three opioid receptors. As” for “As”, “Table 2” for “Table 1”

[2] = molecular target: T2, human delta opioid receptor (Homo sapiens, UniProt P41143); test: Radioligand binding, [3H]naltrindole (δ), CHO membranes
T2 construct: expressed in transfected cells; host or cells: CHO cells, stably transfected
T2 sequence (P41143 whole entry): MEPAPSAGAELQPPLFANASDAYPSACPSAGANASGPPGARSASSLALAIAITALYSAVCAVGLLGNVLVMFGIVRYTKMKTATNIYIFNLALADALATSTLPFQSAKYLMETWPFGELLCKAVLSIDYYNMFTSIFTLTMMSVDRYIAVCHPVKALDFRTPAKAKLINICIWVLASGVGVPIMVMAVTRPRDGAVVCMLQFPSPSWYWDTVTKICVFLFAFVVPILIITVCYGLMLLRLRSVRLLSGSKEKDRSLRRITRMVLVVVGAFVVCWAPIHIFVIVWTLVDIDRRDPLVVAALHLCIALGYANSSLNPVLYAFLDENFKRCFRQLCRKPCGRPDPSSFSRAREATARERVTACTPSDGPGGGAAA
Description: as §1, §2, §3
as §3, with “Four 10-ketomorphinan compounds, see Table 2, were evaluated for their affinity and selectivity at the three opioid receptors. As” for “As”, “Table 2” for “Table 1”

[3] = molecular target: T3, human kappa opioid receptor (Homo sapiens, UniProt P41145); test: Radioligand binding, [3H]U69,593 (κ), CHO membranes; conditions: for Selectivity δ:κ / Selectivity μ:κ: ratio of Ki values
T3 construct: expressed in transfected cells; host or cells: CHO cells, stably transfected
T3 sequence (P41145 whole entry): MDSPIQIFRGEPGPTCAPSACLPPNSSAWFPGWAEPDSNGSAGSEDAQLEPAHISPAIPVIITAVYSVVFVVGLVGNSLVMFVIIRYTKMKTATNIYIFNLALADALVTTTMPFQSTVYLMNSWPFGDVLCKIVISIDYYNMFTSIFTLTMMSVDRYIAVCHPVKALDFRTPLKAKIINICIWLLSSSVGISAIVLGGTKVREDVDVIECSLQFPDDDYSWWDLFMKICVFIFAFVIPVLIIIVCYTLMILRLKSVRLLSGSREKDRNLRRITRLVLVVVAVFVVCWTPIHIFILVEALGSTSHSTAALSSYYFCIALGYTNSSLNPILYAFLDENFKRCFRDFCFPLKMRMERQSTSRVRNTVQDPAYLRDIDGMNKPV
Description: as §1, §2, §3
as §3, with “Four 10-ketomorphinan compounds, see Table 2, were evaluated for their affinity and selectivity at the three opioid receptors. As” for “As”, “Table 2” for “Table 1”

[4] = molecular target: T4, kappa receptor (Homo sapiens, UniProt P41145); test: [35S]GTPgammaS binding assay, kappa receptor; type: biochemical; conditions: CHO membranes
T4 construct: expressed in transfected cells; host or cells: CHO cell lines
T4 sequence (P41145 whole entry): as above
Procedure: (§4) Membranes from the CHO cell lines, expressing either the mu, delta or kappa receptor, are incubated with 12 concentrations of each opioid for 60 minutes at 30° C. in a final volume of 0.5 ml of assay buffer (50 mM Tris-HCl, 3 mM MgCl2, 0.2 mM EGTA, 100 mM NaCl, pH 7.5) containing 3 μM GDP and 0.08 nM [^35S]GTPgammaS. Basal binding can be determined in the presence of GDP and the absence of opioids, and nonspecific binding can be determined by including 10 μM unlabeled […]. The incubation can be terminated by filtration under vacuum through glass fiber filters, followed by three washes with 3 ml ice-cold 50 mM Tris-HCl, pH 7.5. Samples can be allowed to equilibrate overnight and can be counted in 2 ml Ecoscint A scintillation fluid for 2 minutes in a liquid scintillation counter.
(§5) For [^35S]GTPgammaS binding assays, percent stimulation of [^35S]GTPgammaS binding is defined as [(opioid-stimulated binding-basal binding) basal binding]×100. Percent stimulation is plotted as a function of opioid concentration (log scale), and EC50 and Emax values are determined by linear regression analysis. All data is compared across conditions using ANOVA and non-paired two-tailed Student's tests.

[5] = molecular target: T5, mu receptor (Homo sapiens, UniProt P35372); test: [35S]GTPgammaS binding assay, mu receptor; type: biochemical; conditions: CHO membranes
T5 construct: expressed in transfected cells; host or cells: CHO cell lines
T5 sequence (P35372 whole entry): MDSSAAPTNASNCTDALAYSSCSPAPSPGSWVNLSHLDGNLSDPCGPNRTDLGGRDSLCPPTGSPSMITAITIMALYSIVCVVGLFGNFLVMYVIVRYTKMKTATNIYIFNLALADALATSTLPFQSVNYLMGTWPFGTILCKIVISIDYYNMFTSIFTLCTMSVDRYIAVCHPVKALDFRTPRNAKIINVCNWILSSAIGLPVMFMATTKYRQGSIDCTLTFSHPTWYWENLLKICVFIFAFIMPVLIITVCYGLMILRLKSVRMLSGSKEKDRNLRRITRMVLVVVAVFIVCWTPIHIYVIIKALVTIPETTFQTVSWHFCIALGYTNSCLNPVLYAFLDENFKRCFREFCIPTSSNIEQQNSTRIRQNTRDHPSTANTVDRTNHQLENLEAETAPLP
Procedure: as §4, §5

[6] = read-out: Ki (nM) ± SE [3H]Naltrindole (δ), Table 2, CHO membranes, 25° C., mean ± SEM of three experiments in triplicate
[7] = read-out: Ki (nM) ± SE [3H]DAMGO (μ), Table 1, CHO membranes, 25° C., mean ± SEM of three experiments in triplicate
[8] = read-out: Ki (nM) ± SE [3H]Naltrindole (δ), Table 1, CHO membranes, 25° C., mean ± SEM of three experiments in triplicate
[9] = Table 1, CHO membranes, 25° C., mean ± SEM of three experiments in triplicate, read-out: Ki (nM) ± SE [3H]U69,593 (κ)
[10] = Table 1, CHO membranes, 25° C., mean ± SEM of three experiments in triplicate

T1 sequence (P35372 whole entry): as above

Row | SMILES | Ki [2, 6] [nM] | Selectivity δ:κ ([3]; Table 2) | Selectivity μ:κ ([3]; Table 2) | Ki [1, 7] [nM] | Ki [2, 8] [nM] | Ki [3, 9] [nM] | Selectivity δ:κ ([3]; Table 1) | Selectivity μ:κ ([3]; Table 1) | Ki [1] [nM] | Ki [3] [nM] | further results
1 | O=C1c2ccc(O)cc2[C@@]23CCCC[C@H]2[C@@H]1N(CC1CCC1)CC3 [Compound 74, 3-Hydroxy-10-keto-N-cyclobutylmethylmorphinan] | 260 ± 55 | 540 | 6.9 | – | – | – | – | – | – | – | Ki ([1]; read-out: Ki (nM) ± SE [3H]DAMGO (μ), Table 2, CHO membranes, 25° C., mean ± SEM of three experiments in triplicate): 3.3 ± 0.26 nM; Ki ([3]; Table 2, CHO membranes, 25° C., mean ± SEM of three experiments in triplicate, read-out: Ki (nM) ± SE [3H]U69,593 (κ)): 0.48 ± 0.027 nM
2 | Nc1nc2cc3c(cc2s1)C[C@@H]1[C@@H]2CCCC[C@]32CCN1CC1CCC1 [Compound 72] | – | – | – | 7.1 ± 0.47 | 230 ± 21 | 0.79 ± 0.02 | 290 | 9.0 | – | – | Efficacy (agonist, partial agonist, antagonist) at κ receptor [4]: κ agonist; Efficacy (agonist, partial agonist, antagonist) at μ receptor [5]: weak agonist and antagonist activity
3 | C#CCN1CC[C@]23CCCC[C@H]2[C@H]1C(=O)c1ccc(O)cc13 [Compound 73, 3-Hydroxy-10-keto-N-propargylmorphinan] | 2300 ± 190 | 38 | 3.2 | – | – | – | – | – | 190 ± 4.4 | 60 ± 1.7 | –
4 | O=C1c2ccc(O)cc2[C@@]23CCCC[C@H]2[C@@H]1N(CCc1ccccc1)CC3 [Compound 77, 3-Hydroxy-10-keto-N-(2-phenylethyl)morphinan] | 9.7 ± 0.34 | 1.3 | 0.08 | – | – | – | – | – | 0.63 ± 0.07 | 7.7 ± 0.19 | –
5 | COCCN1CC[C@]23CCCC[C@H]2[C@H]1C(=O)c1ccc(O)cc13 [Compound 76, 3-Hydroxy-10-keto-N-(2-methoxyethyl)morphinan] | – | 590 | 5.3 | – | – | – | – | – | 90 ± 10 | 17 ± 0.6 | Ki [2]: > 10000 nM
6 | CN1CC[C@]23CCCC[C@H]2[C@H]1Cc1cc2sc(N)nc2cc13 [Compound 69] | – | – | – | 130 ± 5.8 | 1100 ± 30 | 29 | 38 | 4.5 | – | – | –
7 | CN1CC[C@]23CCCC[C@H]2[C@H]1Cc1c3ccc2nc(N)sc12 [Compound 70] | – | – | – | – | – | 6.4 ± 0.53 | 30 | 0.17 | – | – | Ki [1, 10]: 1.1 ± 0.13 nM; Ki [2, 10]: 190 ± 9.7 nM
8 | Nc1nc2cc3c(cc2s1)C[C@@H]1[C@@H]2CCCC[C@]32CCN1CC1CC1 [Compound 71] | – | – | – | 1.5 ± 0.21 | 29 ± 2 | 0.049 ± 0.0046 | 590 | 30 | – | – | Efficacy (agonist, partial agonist, antagonist) at κ receptor [4]: κ and μ agonist; Relative potency κ versus μ [4]: more potent at κ than at μ; Efficacy (agonist, partial agonist, antagonist) at μ receptor [5]: κ and μ agonist
9 | O=C1c2ccc(O)cc2[C@@]23CCCC[C@H]2[C@@H]1N(CCCF)CC3 [Compound 75, 3-Hydroxy-10-keto-N-(3-fluoropropyl)morphinan] | 690 ± 171 | – | – | – | – | – | – | – | 20 ± 4.8 | – | –
